# Laboratory results reported in patent publication US11071731B2, “Allosteric modulators of the mu opioid receptor” (Chiromics, LLC, priority 2017, dated 2021).
# How the values were obtained:
# mu opioid receptor (MOR) [1] = target: T1, mu opioid receptor (MOR) (Homo sapiens, UniProt P35372); test: Hit Hunter cAMP signaling assay (adenylyl cyclase inhibition), PAM mode with EC20 endomorphin-1; format: cell-based; settings: for EC50 / cAMP Max Resp.: adenylyl cyclase inhibition; for EC50: read-out: cAMP EC50; for cAMP Max. Resp.: maximal response for adenylyl cyclase inhibition
# T1 sequence (P35372 whole entry): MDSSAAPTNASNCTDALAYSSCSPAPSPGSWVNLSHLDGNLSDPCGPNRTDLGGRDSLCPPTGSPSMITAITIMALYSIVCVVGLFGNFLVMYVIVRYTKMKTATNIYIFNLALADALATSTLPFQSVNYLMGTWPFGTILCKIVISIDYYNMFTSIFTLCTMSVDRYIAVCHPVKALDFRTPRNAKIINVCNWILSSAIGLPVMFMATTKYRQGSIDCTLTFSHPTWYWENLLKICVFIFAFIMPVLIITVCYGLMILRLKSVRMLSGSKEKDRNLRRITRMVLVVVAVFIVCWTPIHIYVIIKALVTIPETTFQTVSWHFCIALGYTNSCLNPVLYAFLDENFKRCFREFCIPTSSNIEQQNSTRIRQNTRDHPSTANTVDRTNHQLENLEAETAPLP
# mu opioid receptor (MOR) [2] = target: T1, mu opioid receptor (MOR); test: PathHunter β-arrestin recruitment assay, PAM mode with EC20 endomorphin-1; format: cell-based; settings: for β-arr Max. Resp.: maximal response for β-arrestin recruitment; for EC50 / β-arrestin Max Response: β-arrestin recruitment
# How it was run: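 Enzyme fragment complementation read-out: β-gal ED fragment fused to receptor, EA fused to β-arrestin, recruitment restoring β-gal activity detected by chemiluminescence. EC50 and percent maximal response derived for each compound.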
# [3] = activity switching by MOR PAMs, read-out: β-arrestin EC50
Compound,EC50 (mu opioid receptor (MOR) [1]) [µM],cAMP Max. Resp. (mu opioid receptor (MOR) [1]),β-arr Max. Resp. (mu opioid receptor (MOR) [2]),EC50 (mu opioid receptor (MOR) [2]; read-out: β-arr. EC50) [µM],cAMP Max Resp. (mu opioid receptor (MOR) [1]; activity switching by MOR PAMs),EC50 (mu opioid receptor (MOR) [1]; activity switching by MOR PAMs) [µM],β-arrestin Max Response (mu opioid receptor (MOR) [2]; activity switching by MOR PAMs),EC50 (mu opioid receptor (MOR) [2]; [3]) [µM]
O=S(=O)(c1ccc(Cl)cc1)N1CCCCC1c1cc(F)ccn1 (racemic) [compound 62],> 2.1,D (D represents a maximal response of < 40%),F (F represents a maximal response of > 60%),> 2.1,–,–,–,–
O=S(=O)(c1ccc(Cl)cc1)N1CCCCC1c1ccc(Cl)c(C(F)(F)F)c1 (racemic) [compound 64],0.7 to 2.1,D (D represents a maximal response of < 40%),F (F represents a maximal response of > 60%),0.7 to 2.1,–,–,–,–
O=S(=O)(c1ccc(Cl)cc1)N1CCCCC1c1ccc(C(F)(F)F)cn1 (racemic) [compound 65],> 2.1,E (E represents a maximal response of 40-60%),F (F represents a maximal response of > 60%),> 2.1,–,–,–,–
O=S(=O)(c1ccc(Cl)cc1)N1CCCCC1c1ccc2c(c1)CCO2 (racemic) [compound 66],> 2.1,E (E represents a maximal response of 40-60%),F (F represents a maximal response of > 60%),> 2.1,–,–,–,–
Cc1cc(C2CCCCN2S(=O)(=O)c2ccc(Cl)cc2)ccc1F (racemic) [compound 67],0.7 to 2.1,E (E represents a maximal response of 40-60%),F (F represents a maximal response of > 60%),> 2.1,–,–,–,–
COc1ccc(C2CCCCN2S(=O)(=O)c2ccc(Cl)cc2)cc1C (racemic) [compound 68],0.7 to 2.1,E (E represents a maximal response of 40-60%),F (F represents a maximal response of > 60%),> 2.1,–,–,–,–
Cc1ccc(C2CCCCN2S(=O)(=O)c2ccc(Cl)cc2)cc1Br (racemic) [compound 70],> 2.1,E (E represents a maximal response of 40-60%),F (F represents a maximal response of > 60%),> 2.1,–,–,–,–
O=S(=O)(c1ccc(Cl)cc1)N1CCCCC1c1ccc(Br)c(F)c1 (racemic) [compound 71],> 2.1,D (D represents a maximal response of < 40%),F (F represents a maximal response of > 60%),> 2.1,D (D represents a maximal response of < 40%),> 2.1,F (F represents a maximal response of >60%),> 2.1
O=S(=O)(c1ccc(Cl)cc1)N1CCCCC1c1cc(F)cc(C(F)(F)F)c1 (racemic) [compound 72],< 0.7,D (D represents a maximal response of < 40%),F (F represents a maximal response of > 60%),0.7 to 2.1,D (D represents a maximal response of < 40%),< 0.7,F (F represents a maximal response of >60%),0.7 to 2.1
O=S(=O)(c1ccc(Cl)cc1)N1CCCCC1c1nccc(C(F)(F)F)n1 (racemic) [compound 73],> 2.1,D (D represents a maximal response of < 40%),F (F represents a maximal response of > 60%),> 2.1,D (D represents a maximal response of < 40%),> 2.1,F (F represents a maximal response of >60%),> 2.1
O=S(=O)(c1ccc(Cl)cc1)N1CCCCC1c1ccc(Cl)c(Br)c1 (racemic) [compound 74],> 2.1,E (E represents a maximal response of 40-60%),F (F represents a maximal response of > 60%),> 2.1,–,–,–,–
O=S(=O)(c1ccc(Cl)cc1)N1CCCCC1c1ccc(F)c(F)c1 (racemic) [compound 75],< 0.7,E (E represents a maximal response of 40-60%),F (F represents a maximal response of > 60%),0.7 to 2.1,–,–,–,–
O=S(=O)(c1ccc(Cl)cc1)N1CCCCC1c1ccc(Cl)cc1 (racemic) [compound 76],> 2.1,D (D represents a maximal response of < 40%),F (F represents a maximal response of > 60%),> 2.1,–,–,–,–
Cc1cc(C2CCCCN2S(=O)(=O)c2ccc(Cl)cc2)ccn1 (racemic) [compound 77],> 2.1,D (D represents a maximal response of < 40%),F (F represents a maximal response of > 60%),> 2.1,–,–,–,–
O=S(=O)(c1ccc(Cl)cc1)N1CCCCC1c1ccc(F)cc1 (racemic) [compound 78],< 0.7,E (E represents a maximal response of 40-60%),F (F represents a maximal response of > 60%),0.7 to 2.1,–,–,–,–
